# Measured values reported in patent US20030004128A1, “Formulatios of adenosine a1 agonists” (priority 1999, published 2003).
# Columns and labels:
# [1] = tested on: carrageenan-induced allodynia (decrease in weight bearing on the inflamed left hind paw); experiment: Carrageenan model, weight bearing on inflamed left hind paw (dual channel weight averager); assay type: in vivo, rat; settings: for % Weight on inflamed paw (Allodynia): Table (A), 3 h after carrageenan, 50% = no pain; for % Inhibition Allodynia: versus vehicle control
# Method: (§1) Male Random Hooded rats (180-220 g) were used. The test compound or vehicle was administered 30 mins before the 2nd test compound or vehicle. The test compound and vehicles used were: (i) Compound A in 1% DMSO, 66% Peg400, 33% distilled water and (ii) nabumetone in 1% DMSO, 66% Peg400, 33% distilled water. Both test compounds were administered via the oral route. After a further 30 mins 100 ul of 2% carrageenan was injected intraplantar into the left hind paw and the animals were then returned to their cages. Three hours later behavioural testing of the carrageenan-induced decrease in weight on the inflamed left hind paw (% weight on the inflammed left paw) and associated oedema was assessed. Weight bearing was measured using the dual channel weight averager and paw oedema was assessed using a plethysmometer. The dual channel weight averager is commercially available and is described in the following abstract: Validation of the dual channel weight averager as an instrument for the measurement of inflammatory pain, N. M. Clayton et al., 1997 British Journal Pharmacol. 120, 219P
# (§2) Note: Oedema is the presence of abnormally large amounts of fluid in the intercellular tissue spaces of the body and in the present example is used to provide a measure of inflammation (or anti-oedemic). Allodynia is a sensation of pain resulting from a non-injurious stimulus such as normal heat, cold or pressure on skin and in the present example the weight-bearing (allodynia) effect in used to provide a measure of analgesia.
# (§3) The methodology was as described for (a) above. The test compounds and vehicles used were: (i) Compound A in 1% DMSO, 66% Peg400, 33% distilled water and (ii) Compound B in 1% DMSO, 66% Peg400, 33% distilled water. Both compounds were administered via the oral route.
# [2] = tested on: carrageenan-induced oedema; experiment: Carrageenan model, paw oedema (plethysmometer); assay type: in vivo, rat; settings: versus vehicle control
# Method: as §1, §2, §3
# [3] = Table (B), experiment (a), Compound A 0.4 mg/kg oral
# [4] = Table (C), experiment (b), Compound A 0.4 mg/kg oral
# [5] = Table (C), experiment (b), Compound B 3 mg/kg oral
# [6] = Table (B), experiment (a), nabumetone 3 mg/kg oral
structure (smiles),measurement,setting,value
"CC(C)(C)c1nnc([C@H]2O[C@@H](n3cnc4c(Nc5ccc(Cl)cc5F)ncnc43)[C@H](O)[C@@H]2O)o1 [Compound A, (2S, 3S, 4R, 5R)-2-(5 tert-butyl-[1,3,4]oxadiazol-2-yl)-5-[6-(4-chloro-2-fluoro-phenylamino)-purin-9-yl]-tetrahydro-furan-3,4-diol]",% Weight on inflamed paw (Allodynia),[1]; Compound A 0.4 mg/kg oral,25.4 ± 2.9%
same,% Inhibition Allodynia,[1]; [3],17.0 ± 9.6%
same,% Inhibition Allodynia,[1]; [4],47.9 ± 11.1%
same,% Inhibition Oedema,[2]; [3],−7.4 ± 5.7%
same,% Inhibition Oedema,[2]; [4],24.9 ± 5.5%
"CCOc1ccc(-c2nn3ncccc3c2-c2ccc(S(C)(=O)=O)cc2)cc1 [Compound B, 2-(4-ethoxy-phenyl)-3-(4-methanesulfonyl-phenyl)-pyrazolo[1,5-b]pyridazine]",% Inhibition Allodynia,[1]; [5],45.4 ± 8.9%
same,% Inhibition Oedema,[2]; [5],35.8 ± 3.6%
"COc1ccc2cc(CCC(C)=O)ccc2c1 [Nabumetone, nabumetone, reference compound]",% Weight on inflamed paw (Allodynia),[1]; nabumetone 3 mg/kg oral,21.6 ± 3.6%
same,% Inhibition Allodynia,[1]; [6],4.3 ± 12.2%
same,% Inhibition Oedema,[2]; [6],−25.1 ± 4.7%
